Results on two molecules are retold here after US8097650B2, “Method of treating a condition associated with phosphorylation of TASK-1” (The Trustees of Columbia University In The City of New York, priority 2005, dated 2012).

SMILES strings stand for the structures.

For one experiment, the system named is quiescent myocytes. Put plainly: Spontaneous activity in quiescent mouse ventricular myocytes (current clamp). The note with it: C-PAF 185 nM. The format is cell-based. As to the method:
Adult mice, 2-3 months old, were anesthetized with ketamine/xylazine and their hearts were removed according to protocols approved by the Columbia University-IACUC. Experiments were performed on single rod-shaped, quiescent ventricular myocytes dissociated using a standard retrograde collagenase perfusion (Kuznetsov V et al. (1995) Circ Res 76: 40-52) from hearts of mice that were either wild-type (WT), or PAFR knockouts (KO). Both WT and KO mice were bred on a C57/B16 background. The derivation of the KO mice has been described previously (Hoffman, B F et al.(1996) J Cardiovasc Electrophysiol 7:120-133).
Prior to electrophysiological measurements, cells were placed into the perfusion chamber and superfused at room temperature with Tyrode's buffer (in mM: NaCl, 140; KCl, 5.4; CaCl2 1; MgCl2, Hepes, 5; Glucose, 10; pH 7.4). The whole-cell patch clamp technique was used with pipettes having resistances of 1.5-3 MΩ (intracellular solution, in mM: aspartic acid, 130; KOH, 146; NaCl, 10; CaCl2, 2; EGTA, 5; Hepes, 10; MgATP, 2; pH 7.2). Solutions of C-PAF, the PAFR antagonist, CV-6209 (Biomol) and the PKC inhibitor, bisindolylmaleimide I (BIM I; Calbiochem) were prepared in water and diluted in Tyrode's before use. […] A custom-made fast perfusion device was used to exchange the solution around the cell within 1 s (DiFrancesco et al. (1986) J Physiol 377: 61-88).
Current and voltage protocols were generated using Clampex 7.0 software applied by means of an Axopatch 200B amplifier and a Digidata 1200 interface (Axon Instruments). During voltage clamp, steady state current traces were acquired at 500 Hz and final filtered at 10 Hz. During current clamp, membrane voltage was acquired at 5 KHz and filtered at 1 KHz. Ramp clamps were conducted by imposing a voltage ramp (14 mV/s) at a 500 Hz acquisition rate with 1 kHz filtering. Data were analyzed using pCLAMP 8.0 (Axon) and Origin 6.0 (Microcal) and are presented as mean±SEM. Steady-state current was determined by computer calculation of average current over a time period of at least 5 s. In all experiments, the n value indicates the number of myocytes studied, and represents pooled data from at least 2 (voltage clamp) or 3 (current clamp) animals. Student's t-test, one-way ANOVA and χ^2 tests were used; a value of p<0.05 was considered statistically significant. Records have been corrected for the junction potential, which was measured to be 9.8 mV.

The target of the next experiment is T1, hTASK-1 (Homo sapiens, UniProt O14649).
T1 construct: expressed in transfected cells; host or cells: CHO cells
T1 sequence (O14649 whole entry): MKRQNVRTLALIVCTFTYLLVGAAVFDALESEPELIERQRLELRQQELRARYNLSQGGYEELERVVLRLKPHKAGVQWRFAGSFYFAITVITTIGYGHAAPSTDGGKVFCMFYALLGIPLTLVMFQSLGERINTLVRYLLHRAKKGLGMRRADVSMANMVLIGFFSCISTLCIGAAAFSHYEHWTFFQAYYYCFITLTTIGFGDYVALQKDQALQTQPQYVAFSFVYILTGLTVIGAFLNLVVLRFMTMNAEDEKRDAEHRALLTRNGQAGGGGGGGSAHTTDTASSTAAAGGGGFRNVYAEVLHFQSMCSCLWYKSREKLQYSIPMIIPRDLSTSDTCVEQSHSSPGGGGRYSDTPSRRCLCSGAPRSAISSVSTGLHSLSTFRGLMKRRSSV
Put plainly: hTASK-1 current in CHO cells (ramp clamp, pH 8). The experiment is classed as cell-based. The note with it: Tyrode's pH 8; read-out: EC50 for activation of TASK-1 current. As to the method:
FIG. 21. CHO cells (hTREK-1, hTASK-1) or HEK cells (mTRAAK) were co-transfected with plasmids encoding one of the two pore domain channels and GFP using the GeneJammer reagent. After 48-60 h, the expressed current was measured using a ramp protocol while the cells were perfused with regular Tyrode's solution containing varying concentrations of ONO-RS-082 (range of concentration from 10 nM to 500 μM as noted in FIG. 21) until a steady state was reached. Each cell was exposed to only one concentration of drug. Panel A: TREK-1 current was determined using a ramp clamp, and the percent increase induced by ONO-RS-082 was measured at the most positive imposed voltage (n≧5). The EC50 for activation was around 3 μM and the basal and ONO-activated current densities are noted. Panel B: TASK-1 current was determined using a ramp clamp in Tyrode's solution at pH=8 and the percent increase induced by ONO-RS-082 was measured at the most positive imposed voltage (n≧4). The EC50 was around 8 μM and the basal and ONO-activated current densities are noted. Panel C: TRAAK current was determined using a ramp clamp, and the percent increase induced by ONO-RS-082 was measured at the most positive imposed voltage (n≧4). The EC50 was around 0.9 μM and the basal and ONO-activated current densities are noted.

Turning to `CCCCCCCCCCCCCCCCOC[C@H](COP(=O)([O-])OCC[N+](C)(C)C)OC(=O)NC` [C-PAF, carbamyl-platelet-activating factor], in the experiment on quiescent myocytes, the “PAFR KO myocytes with no response” value is 7 of 9 and the “quiescent WT myocytes sensitive to C-PAF superfusion” value is recorded as 11 of 11. Moreover, the “initial delay of the effect” value with quiescent myocytes (quiescent WT myocytes) is 96 ± 11 s.
Turning to `CCCCCc1ccc(C=CC(=O)Nc2cc(Cl)ccc2C(=O)O)cc1` [ONO-RS-082], the EC50 at hTASK-1 is around 8 µM.

One may read the EC50 as the midpoint of the concentration-response curve.
